Data on 32 molecules can be found in US20100324086A1, “COMPOUNDS AND METHODS” (Novasaid AB, priority 2008, published 2010).

What is called pIC50 is −log10 of the IC50, conventionally taken in molar units.

The structures appear in SMILES notation. pIC50: −log10 of the molar value.

This assay has as its target T1, recombinant, membrane-bound mPGES-1 (Homo sapiens, UniProt O14684).
T1 sequence (O14684 1-152): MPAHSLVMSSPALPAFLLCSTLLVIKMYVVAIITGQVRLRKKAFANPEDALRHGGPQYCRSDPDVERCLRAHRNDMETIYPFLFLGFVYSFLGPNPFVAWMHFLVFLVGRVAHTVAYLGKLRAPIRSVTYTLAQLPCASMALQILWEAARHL
The experiment in a line: Thiobarbituric acid assay (TBA-MDA assay), inhibition of mPGES-1. It is filed as biochemical. The settings on record: remaining PGH2 measured at 535 nm. An excerpt:
Malondialdehyde is a product of lipid peroxidation and reacts with thiobarbituric acid forming a red product that absorbs at 535 nm (W. G. Niehaus, Jr and B. Samuelsson, Eur. J. Biochem 6, 126 (1968). The extinction coefficient of the TBA-MDA conjugate is 1.56×10^5 M^−1 cm^−1 (E. D. Wills. Biochem. J. 113, 315 (1969).
The method used for detection of inhibition of mPGES-1 is based on the detection of the amount of remaining PGH2. This method was described more than 20 years ago by Basevich et al (Bioorg. Khim. 1983, 9(5), 658-665.
The assay used was a modified variant and used citric acid instead of the TCA-TBA-HCl reagent described in the original assay. In this assay recombinant, membrane-bound mPGES-1 was incubated with PGH2. The reaction was stopped by adding citric acid with a final pH of 3 and a large excess of FeCl2 (20 mM) to convert any remaining PGH2 into MDA and […]. TBA reagent was finally added (0.67%) and the samples were heated at 80° C. for 30 min. The absorbance of the conjugate was measured at 535 nm.
The product of mPGES-1 (PGE2) was not measured directly in this assay, but rather the remaining substrate (PGH2) indirectly by adding FeCl2 that converts PGH2 into […] and 12-HHT. As a positive control a known mPGES-1 inhibitor, MK-886, was used and the new inhibitors were compared with the inhibition of MK-886 (% of MK-886 inhibition).
Regarding `Cc1ccccc1C(=O)Nc1cccc(C(=O)Nc2ccc3ccccc3n2)c1` [Compound 44, 3-(2-Methyl-benzoylamino)-N-quinolin-2-yl-benzamide], the pIC50 is 6.19.

With `CC(=O)Oc1ccccc1C(=O)Nc1cccc(C(=O)NC2CCCCCC2)c1` [Compound 66, Acetic acid 2-(3-cycloheptylcarbamoyl-phenylcarbamoyl)-phenyl ester], the pIC50 was 5.00.

For the molecule `O=C(NCc1cccc(Br)c1)c1cccc(NC(=O)c2ccccc2C(F)(F)F)c1` [Compound 138, N-(3-Bromo-benzyl)-3-(2-trifluoromethyl-benzoylamino)-benzamide], the pIC50 is 6.80.

With `O=C(Nc1ccccn1)c1cccc(NC(=O)c2ccccc2Cl)c1` [Compound 12, 3-(2-Chloro-benzoylamino)-N-(pyridine-2-yl)-benzamide], the pIC50 was 5.89.

With `CN(C)c1ccccc1CNC(=O)c1cccc(NC(=O)c2ccccc2C(F)(F)F)c1` [Compound 145, N-(2-Dimethylamino-benzyl)-3-(2-trifluoromethyl-benzoylamino)-benzamide], the pIC50 was 6.33.

In the case of `O=C(Nc1ccc2ncsc2c1)c1cccc(NC(=O)c2ccccc2Cl)c1` [Compound 14, 3-(2-Chloro-benzoylamino)-N-(benzothiazol-6-yl)-benzamide], the pIC50 is 6.05.

Regarding `O=C(Nc1cccc(C(=O)Nc2ccc3ccccc3n2)c1)c1ccccc1` [Compound 17, 3-Benzoylamino-N-quinolin-2-yl-benzamide], the pIC50 is 5.46.

Take `O=C(NC1CCCCCC1)c1cccc(NC(=O)c2ccccc2F)c1` [Compound 63, N-(3-Cycloheptylcarbamoyl-phenyl)-2-fluorobenzamide]: the pIC50 was 6.34.

As to `COc1cccc(OC)c1C(=O)Nc1cccc(C(=O)N[C@@H](C)c2cccc3ccccc23)c1` [Compound 76, 2,6-Dimethoxy-N-[3-((S)-1-naphthalen-1-yl-ethylcarbamoyl)-phenyl]-benzamide], the negative logarithm of the IC50 (pIC50) is 5.39.

In the case of `O=C(Nc1nc2ccccc2[nH]1)c1cccc(NC(=O)c2ccccc2Cl)c1` [Compound 13, 3-(2-Chloro-benzoylamino)-N-(1H-benzimidazol-2-yl)-benzamide], the pIC50 is 5.89.

As to `C[C@@H](NC(=O)c1cccc(NC(=O)c2ccccc2Cl)c1)c1cccc2ccccc12` [Compound 101, 2-Chloro-N-[3-((R)-1-naphthalen-1-yl-ethylcarbamoyl)-phenyl]-benzamide], the pIC50 was 6.54.

For the molecule `O=C(NC1CCCCCC1)c1cccc(NC(=O)c2ccccc2Cl)c1` [Compound 36, 3-(2-Chloro-benzoylamino)-N-cycloheptyl-benzamide], the pIC50 is 6.48.

As to `O=C(Nc1cccc(CNCc2ccccc2C(F)(F)F)c1)c1ccccc1C(F)(F)F` [Compound 125, 2-Trifluoromethyl-N-{3-[(2-trifluoromethyl-benzylamino)-methyl]-phenyl}-benzamide], the pIC50 is 5.74.

Consider `O=C(Nc1ccc2ccccc2n1)c1cccc(NC(=O)c2ccccc2[N+](=O)[O-])c1` [Compound 53, 3-(2-Nitro-benzoylamino)-N-quinolin-2-yl-benzamide], for which the pIC50 is 6.30.

Regarding `COc1ccccc1CNC(=O)c1cccc(NC(=O)c2ccccc2C(F)(F)F)c1` [Compound 144, N-(2-Methoxy-benzyl)-3-(2-trifluoromethyl-benzoylamino)-benzamide], the negative logarithm of the IC50 (pIC50) is 6.08.

Turning to `O=C(NCc1cccc2ccccc12)c1cccc(NCc2ccccc2Br)c1` [Compound 122, 3-(2-Bromo-benzylamino)-N-naphthalen-1-ylmethyl-benzamide], the pIC50 was 6.00.

`O=C(NC1CCCCCC1)c1cccc(NC(=O)c2ccccc2C(F)(F)F)c1` [Compound 56, N-(3-Cycloheptylcarbamoyl-phenyl)-2-trifluoromethylbenzamide]: the pIC50 is 6.18.

Take `O=C(NC1CCCCCC1)c1cccc(NC(=O)c2ccccc2Br)c1` [Compound 68, 2-Bromo-N-(3-cycloheptylcarbamoyl-phenyl)-benzamide]: the pIC50 is 6.74.

As to `O=C(NCc1ccccc1)c1cccc(NC(=O)c2ccccc2Cl)c1` [Compound 2, 3-(2-Chloro-benzoylamino)-N-benzyl-benzamide], the negative logarithm of the IC50 (pIC50) is 5.24.

`Cc1cccc(CNC(=O)c2cccc(NC(=O)c3ccccc3C(F)(F)F)c2)c1C` [Compound 139, N-(2,3-Dimethyl-benzyl)-3-(2-trifluoromethyl-benzoylamino)-benzamide]: the pIC50 was 7.12.

As for `O=C(Nc1cccc(C(=O)Nc2ccc3ccccc3n2)c1)c1cccc(Cl)c1` [Compound 29, 3-(3-Chloro-benzoylamino)-N-quinolin-2-yl-benzamide], the pIC50 is 5.38.

Turning to `O=C(NCc1ccccc1N1CCCCC1)c1cccc(NC(=O)c2ccccc2C(F)(F)F)c1` [Compound 146, N-(2-piperidin-1-yl-benzyl)-3-(2-trifluoromethyl-benzoylamino)-benzamide], the pIC50 was 6.77.

For the molecule `C[C@H](NC(=O)c1cccc(NC(=O)c2c(Cl)cccc2Cl)c1)c1cccc2ccccc12` [Compound 74, 2,6-Dichloro-N-[3-((S)-1-naphthalen-1-yl-ethylcarbamoyl)-phenyl]-benzamide], the pIC50 is 6.33.

Consider `O=C(Nc1ccc2ccccc2n1)c1cccc(NC(=O)c2c(Cl)cccc2Cl)c1` [Compound 40, 3-(2,6-Chloro-benzoylamino)-N-quinolin-2-yl-benzamide], for which the pIC50 was 6.10.

With `O=C(NC1CCCc2ccccc21)c1cccc(NC(=O)c2ccccc2Cl)c1` (centres unmarked) [Compound 35, 3-(2-Chloro-benzoylamino)-N-(1,2,3,4-tetrahydro-naphthalen-1-yl)-benzamide], the pIC50 was 6.07.

As for `O=C(Nc1nc2cc(Cl)ccc2o1)c1cccc(NC(=O)c2ccccc2C(F)(F)F)c1` [Compound 164, N-(3-(5-chlorobenzo[d]oxazol-2-ylcarbamoyl)phenyl)-2-(trifluoromethyl)benzamide], the pIC50 is 7.17.

For the molecule `Cc1ccccc1C(=O)Nc1cccc(C(=O)NCc2cccc3ccccc23)c1` [Compound 110, N-{3-[(Naphthalen-1-ylmethyl)-carbamoyl]-phenyl}-2-methyl-benzamide], the pIC50 is 6.48.

On to `O=C(Nc1ccc2ccccc2n1)c1cccc(NC(=O)c2ccccc2I)c1` [Compound 46, 3-(2-Iodo-benzoylamino)-N-quinolin-2-yl-benzamide], for which the negative-log IC50 (pIC50) is 6.54.

On to `O=C(Nc1ccc2ccccc2n1)c1cccc(NC(=O)c2ccccc2Br)c1` [Compound 38, 3-(2-Bromo-benzoylamino)-N-quinolin-2-yl-benzamide], for which the pIC50 was 6.85.

`O=C(Nc1ccc2cccc(O)c2n1)c1cccc(NC(=O)c2ccccc2C(F)(F)F)c1` [Compound 140, N-(8-hydroxy-quinolin-2-yl)-3-(2-trifluoromethyl-benzoylamino)-benzamide]: the negative-log IC50 (pIC50) was 5.72.

On to `O=C(NCc1cccc2ccccc12)c1cccc(NC(=O)c2ccccc2Br)c1` [Compound 103, 2-Bromo-N-{3-[(naphthalen-1-ylmethyl)-carbamoyl]-phenyl}-benzamide], for which the pIC50 is 6.74.

For the molecule `CC(=O)Oc1ccccc1C(=O)Nc1cccc(C(=O)Nc2ccc3ccccc3n2)c1` [Compound 50, Acetic acid 2-[3-(quinolin-2-ylcarbamoyl)-phenylcarbamoyl]-phenyl ester], the pIC50 is 5.52.
